# Laboratory results as given in patent US6525032B2, “Purine derivatives” (Pfizer Inc, priority 2000, dated 2003).
# System: neutrophils activated by fMLP
# Experiment: superoxide production from human neutrophils activated by fMLP (cytochrome C reduction)
# Assay type: cell-based
# Settings: Neutrophil; fMLP-induced superoxide production, neutrophils from human peripheral blood, cytochalasin B priming, adenosine deaminase present; read-out: IC50 (concentration giving 50% inhibition compared to the control response to fMLP)
# Protocol: This is evaluated by determining the compound profile in an assay where superoxide production was measured from neutrophils activated by fMLP. Neutrophils were isolated from human peripheral blood using dextran sedimentation followed by centrifugation through Ficoll-Hypaque solution. Any contaminating erythrocytes in the granulocyte pellet were removed by lysis with ice-cold distilled water. Superoxide production from the neutrophils was induced by fMLP in the presence of a priming concentration of cytochalasin B. Adenosine deaminase was included in the assay to remove any endogenously produced adenosine that might suppress superoxide production. The effect of the compound on the fMLP-induced response was monitored colorometrically from the reduction of cytochrome C within the assay buffer. The potency of the compounds was assessed by the concentration giving 50% inhibition (IC50) compared to the control response to fMLP.
row,Compound,IC50 [nM]
1,"CCNC(=O)[C@H]1O[C@@H](n2cnc3c(NCC(c4ccccc4)c4ccccc4)nc(C(=O)NCCN4CCC(C(C)C)CC4)nc32)[C@H](O)[C@@H]1O [Example 12, 6-[(2,2-diphenylethyl)amino]-9-{(2R,3R,4S,5S)-5-[(ethylamino)carbonyl]-3,4-dihydroxytetrahydro-2-furanyl}-N-[2-(4-isopropyl-1-piperidinyl)ethyl]-9H-purine-2-carboxamide]",< 40
2,"CCNC(=O)[C@H]1O[C@@H](n2cnc3c(NCC(c4ccccc4)c4ccccc4)nc(C(=O)NCCCNC(C)C)nc32)[C@H](O)[C@@H]1O [Example 16, 6-[(2,2-diphenylethyl)amino]-9-{(2R,3R,4S,5S)-5-[(ethylamino)carbonyl]-3,4-dihydroxytetrahydro-2-furanyl}-N-[3-(isopropylamino)propyl]-9H-purine-2-carboxamide]",< 40
3,"CCNC(=O)[C@H]1O[C@@H](n2cnc3c(NCC4c5ccccc5-c5ccccc54)nc(C(=O)NCCN4CCCCC4)nc32)[C@H](O)[C@@H]1O [Example 20, 9-{(2R,3R,4S,5S)-5-[(ethylamino)carbonyl]-3,4-dihydroxytetrahydro-2-furanyl}-6-[(9H-fluoren-9-ylmethyl)amino]-N-[2-(1-piperidinyl)ethyl]-9H-purine-2-carboxamide]",< 40
4,"CCNC(=O)[C@H]1O[C@@H](n2cnc3c(NCC(c4ccccc4)c4ccccc4)nc(C(=O)NCCN4CCC(C)CC4)nc32)[C@H](O)[C@@H]1O [Example 31, 6-[(2,2-diphenylethyl)amino]-9-{(2R,3R,4S,5S)-5-[(ethylamino)carbonyl]-3,4-dihydroxytetrahydro-2-furanyl}-N-[2-(4-methyl-1-piperidinyl)ethyl]-9H-purine-2-carboxamide]",< 40

# The next lines start with the values.
row,IC50 [nM],Compound
1,< 40,"CCNC(=O)[C@H]1O[C@@H](n2cnc3c(NCC(c4ccccc4)c4ccccc4)nc(C(=O)NCCCN4CCCC4)nc32)[C@H](O)[C@@H]1O [Example 7, 6-[(2,2-diphenylethyl)amino]-9-{(2R,3R,4S,5S)-5-[(ethylamino)carbonyl]-3,4-dihydroxytetrahydro-2-furanyl}-N-[3-(1-pyrrolidinyl)propyl]-9H-purine-2-carboxamide]"
2,< 40,"CCNC(=O)[C@H]1O[C@@H](n2cnc3c(NC(CC)CC)nc(C(=O)NCCN4CCCCC4)nc32)[C@H](O)[C@@H]1O [Example 10, 9-{(2R,3R,4S, 5S)-5-[(ethylamino)carbonyl]-3,4-dihydroxytetrahydro-2-furanyl}-6-[(1-ethylpropyl)amino]-N-[2-(1-piperidinyl)ethyl]-9H-purine-2-carboxamide]"
3,< 40,"CCNC(=O)[C@H]1O[C@@H](n2cnc3c(NCC(c4ccccc4)c4ccccc4)nc(C(=O)NCCCN(CC)CC)nc32)[C@H](O)[C@@H]1O [Example 21, N-[3-(diethylamino)propyl]-6-[(2,2-diphenylethyl)amino]-9-{(2R,3R,4S,5S)-5-[(ethylamino)carbonyl]-3,4-dihydroxytetrahydro-2-furanyl}-9H-purine-2-carboxamide]"
4,< 40,"CCNC(=O)[C@H]1O[C@@H](n2cnc3c(NCC(c4ccccc4)c4ccccc4)nc(C(=O)NCCCN(C)C)nc32)[C@H](O)[C@@H]1O [Example 27, N-[3-(dimethylamino)propyl]-6-[(2,2-diphenylethyl)amino]-9-{(2R,3R,4S,5S)-5-[(ethylamino)carbonyl]-3,4-dihydroxytetrahydro-2-furanyl}-9H-purine-2-carboxamide]"
